In assay [1] the target is T1, TREK-1 channels expressed on the ßTC3 cells (Mus musculus, UniProt P97438).
T1 construct: TREK-1 channels are present on the surface of beta-pancreatic cells such as beta-TC3 cells; endogenous in cells; host or cells: ßTC3 cells
T1 sequence (P97438 1-426): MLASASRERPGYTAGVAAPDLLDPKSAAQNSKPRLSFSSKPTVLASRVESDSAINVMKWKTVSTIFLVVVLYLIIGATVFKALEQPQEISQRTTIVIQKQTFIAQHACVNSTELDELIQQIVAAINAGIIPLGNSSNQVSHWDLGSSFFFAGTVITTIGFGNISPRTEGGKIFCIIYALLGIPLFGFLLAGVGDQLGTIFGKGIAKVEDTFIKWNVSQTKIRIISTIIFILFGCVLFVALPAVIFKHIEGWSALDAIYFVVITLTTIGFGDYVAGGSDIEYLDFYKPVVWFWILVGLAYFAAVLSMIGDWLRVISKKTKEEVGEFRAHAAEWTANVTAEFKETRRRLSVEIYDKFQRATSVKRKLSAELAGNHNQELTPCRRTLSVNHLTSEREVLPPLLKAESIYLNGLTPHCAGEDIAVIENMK
Nature of the assay: Whole-cell patch clamp, I=f(V), on ßTC3 cells activated with arachidonic acid. The following applies: previously activated with arachidonic acid, FIG. 7A. It counts as cell-based. As to the method:
(§1) All experiments measuring the effect of spadin analogs and spadin were performed on ßTC3 or LNCaP or HEK293 cells stably transfected with the TREK-1 channel, hTREK-1/HEK293. The hTREK-1/HEK293 cell line was prepared in the laboratory. These cells also express a reporter gene: E-Green Fluorescent Protein (EGFP) enabling their visualization.
The ßTC3 cells were cultured in RPMI 1640 medium supplemented with 2.5% FCS, 50 μM beta-mercaptoethanol, 10 mM HEPES, 1 mM sodium pyruvate, 50 μg/ml gentamycin and 1% of a streptomycin+penicillin mixture, at 37° C. in the presence of 5% CO2.
The LNCaP cells were cultured in DMEM medium (Gibco)/10% fetal calf serum (FCS, ICN)/1% streptomycin+penicillin mixture (Gibco)/1% glutamax (Gibco)/at 37° C. in the presence of 5% CO2. […] From day 2 to day 4, the cells were measured by electrophysiological methods.
(§2) All measurements were made at room temperature, i.e. at 21-22° C. The hTREK-1/HEK293 cells were identified by the fluorescence emitted by EGFP after excitation at 480 nm. […]
The cell culture medium was replaced with a solution 150 mM NaCl, 5 mM KCl, 3 mM MgCl2, 1 mM CaCl2, 10 mM HEPES/NaOH pH 7.4 containing 10 mM tetraethylammonium chloride, 3 mM 4-aminopyridine. […] The resting potential of the membrane of the measured cell was set at −80 mV. […]
For orientation: Patch clamp records ionic current or voltage across a cell membrane.

Assay [2] concerns the target T2, TREK-1 channels expressed on the LNCaP cells (Homo sapiens, UniProt O95069).
T2 construct: TREK-1 channels are also present on the surface of cancer cells such as LNCaP cells (prostate cancer); endogenous in cells; host or cells: LNCaP cells
T2 sequence (O95069 1-426): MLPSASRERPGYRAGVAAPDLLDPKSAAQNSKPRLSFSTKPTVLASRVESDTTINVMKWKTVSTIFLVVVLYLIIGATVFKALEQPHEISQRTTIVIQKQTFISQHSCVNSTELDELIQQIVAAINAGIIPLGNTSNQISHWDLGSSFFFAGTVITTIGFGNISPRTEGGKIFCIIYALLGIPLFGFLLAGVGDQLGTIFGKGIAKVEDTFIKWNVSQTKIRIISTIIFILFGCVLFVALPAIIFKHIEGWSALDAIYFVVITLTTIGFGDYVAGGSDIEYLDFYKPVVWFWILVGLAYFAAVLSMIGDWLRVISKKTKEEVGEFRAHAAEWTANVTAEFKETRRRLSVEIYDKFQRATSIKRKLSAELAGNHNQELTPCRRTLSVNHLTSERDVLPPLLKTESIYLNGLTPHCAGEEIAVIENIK
Nature of the assay: Whole-cell patch clamp, I=f(V), on LNCaP cells activated with arachidonic acid. It is filed as cell-based. As to conditions: previously activated with arachidonic acid, FIG. 7B. How it is done:
as §1
The LNCaP cells were cultured in DMEM medium (Gibco)/10% fetal calf serum (FCS, ICN)/1% streptomycin+penicillin mixture (Gibco)/1% glutamax (Gibco)/at 37° C. in the presence of 5% CO2. At day 1, the hTREK-1/HEK293 or BTC3 or LNCaP cells were seeded at 20,000 cells per 35 mm diameter dish containing 2 ml of culture medium. From day 2 to day 4, the cells were measured by electrophysiological methods.
as §2
The cell culture medium was replaced with a solution 150 mM NaCl, 5 mM KCl, 3 mM MgCl2, 1 mM CaCl2, 10 mM HEPES/NaOH pH 7.4 containing 10 mM tetraethylammonium chloride, 3 mM 4-aminopyridine. […] The resting potential of the membrane of the measured cell was set at −80 mV.
The voltage variations were obtained either by continuous ramp (from −100 to +60 mV) or by a potential jump of 10 mV (from −100 to +60 mV, 1.5 seconds per jump). The data obtained were analyzed with the Pclamp software. […]

For a further assay, the system named is LNCaP cells. The assay can be described thus: Growth of LNCaP cells by counting the cells in culture. It is filed as cell-based. The following applies: cell count after 24 or 48 h, FIG. 7C.
For the next assay, the target named is T3, TREK-1 channel (Homo sapiens, UniProt O95069).
T3 sequence (O95069 1-426): T2 sequence (O95069 1-426)
The following applies: previously shown; cited from earlier work.

A short description of assay [3]: Learned helplessness test (LHT). It is filed as in vivo. As to conditions: mice, bolus of 100 μL of a 10^-6 M solution 30 minutes before conditioning, FIG. 4. How it is done: Learned resignation or learned helplessness is a model based on the repeated administration of electric shocks to induce a resigned state in the animal.
The apparatus comprises two compartments separated by a sliding door and with a floor consisting of a metal grid through which the electrical pulses are administered. The learned helplessness protocol is divided into two stages, an animal conditioning stage and a test stage.
The conditioning was carried out over a period of four days during which time the mice received 360 non-avoidable electric shocks of 0.3 mA for one hour (the door, separating the two compartments, being closed). The shocks lasted for 2 seconds and an interval of 8 seconds was respected between each shock. This conditioning step leads to a phenomenon of helplessness in animals.
On the day of the test, the mice were placed in the same compartments but with a possibility of escaping the shock. The test counted 30 trials. During the administration of the shock, the door separating the two compartments opened, allowing the animals to flee. When the animal changes compartment the test is finished and the shock stops. […] This test made it possible to record the escape latencies of the animals. The thirty tests were then grouped by 5 and the average escape time was calculated. […]

Assay [4] has as its system BrdU-positive cells of the dentate gyrus of the hippocampus. The assay can be described thus: Hippocampal neurogenesis by BrdU immunohistochemistry. The following applies: mice, four days of treatment, FIG. 5. It counts as in vivo. As to the method: BrdU (5-bromo-2′-deoxyuridine) is a synthetic nucleoside analogous to thymidine. It is incorporated during DNA replication during phase S (chromosome duplication during interphase) of the cells in division. Injection of BrdU makes it possible to visualize the cells in division of the tissue to be analyzed by means of immunological labeling. In the present study, the hippocampal neurogenesis of the mice was evaluated after treatment with spadin or the different analogs.
After the behavioral tests, the mice were injected with BrdU at a final concentration of 120 mg/kg intraperitoneally, according to the modified protocol of Beauquis, J. et al. (Eur J Neurosci 23, 1539-1546, 2007). Four injections of 300 μl at 10 mg/ml, spaced two hours apart, were performed. 24 hours after the injections, the mice were anesthetized with pentobarbital (100 mg/kg) and then perfused intracardially. During the intracardiac perfusion, physiological saline was administered to remove all blood from the body of the mice, and then 4% paraformaldehyde (PFA) was perfused to fix the organs. Post-fixation in 4% PFA was also performed overnight. The brains of the mice were cut with a vibratome (Leica), which allowed 40 μm floating frontal sections to be obtained. The sections selected for the immunological reaction were those ranging from bregma 3.3 to 5.3. Eight sections were selected with a regular spacing, allowing the entire hippocampus to be covered while remaining homogeneous from one brain to another.
The immunological reaction was performed by incubating an anti-BrdU primary antibody (BD Pharmingen, 1/8000), with the brain sections, overnight at 4° C. The brain sections were then washed in PBS (Phosphate Buffered Saline) and incubated for two hours with the secondary antibody (biotinylated goat anti-mouse antibody, Vector laboratories, 1/400). […]
The sections were then mounted on slides and fixed with Entellan. BrdU-positive cells of the dentate gyrus of the hippocampus were counted in both hemispheres of each brain. […]

Another assay has as its system PSD-95 protein. The assay can be described thus: Synaptogenesis: PSD-95 expression in cortical neurons by Western blot. It counts as cell-based, mouse C57BI/6J. The following applies: 1 μM, 0-36 hours, normalized to ß-actin, FIG. 6. As to the method:
Pregnant female C57BI/6J mice (20-25 g, Janvier Labs, St Berthevin, France) were anesthetized by inhalation of 2% isoflurane mixed with 30% oxygen and 70% nitrous oxide, and then sacrificed. The embryos (E14) were removed and the cerebral cortex was dissected in PBS containing 1% glucose. Neurons were prepared from cerebral cortex by mechanical dissociation, as described in Brewer and Torricelli, 2007 [26]. The dissociated neurons were distributed in poly-L-lysine treated plates and cultured for up to 10 days in neurobasal medium containing 2% B27 (Invitrogen, Fisher Scientific, Illkirch, France) and 50 μg/ml gentamycin (Sigma France), at 37° C. under 5% CO2. […]
Cortical neurons treated with peptides G/A-PE(22-28) and biotinylated G/A-PE(22-28) for different durations (0, 5, 8, 24 and 36 hours) were homogenized in Laemmli buffer and analyzed using 10% SDS-Page gels. […] The ß-actin contents were determined after extraction using a 1/5000 dilution of anti-β-actin antibodies (Santa Cruz mouse monoclonal antibody, dilution 1/5000). […] The proteins were detected with ECL Plus detection reagents (Amersham Biosciences) using the LAS-3000 imaging system (Fujifilm, Düsseldorf, Germany). The relative intensities of each labeled band were analyzed by densitometric scanning using ImageJ software (Wayne Rasband, National Institute of Health, Bethesda, Md., USA). […]
(In general: Immunoblotting shows a protein as a band on a membrane.)

Entries after “also recorded” stand apart in the source; their conditions may differ. Where a SMILES comes first, the peptide text is derived from it. The star is where a group is joined. Biotin = O=C1N[C@H]2[C@H](CS[C@H]2CCCCC(=O)*)N1

For the molecule “GVSWGLR (Peptide PE(22-28)) [base peptide derived from the propeptide, used for design of other peptides]”, the “blocking of arachidonic acid (aa) activated TREK-1 / potassium currents on ßTC3 cells” value in assay [1] is recorded as “blocks arachidonic acid (aa) sensitive potassium currents”. Further, the “blocking of arachidonic acid (aa) activated TREK-1 / potassium currents on LNCaP cells” value in assay [2] was “blocks arachidonic acid (aa) sensitive potassium currents; also recorded: capable of blocking the TREK-1 channels”. The “growth of LNCaP cells” value with LNCaP cells was “inhibits their growth; also recorded: capable of inhibiting the cell growth”.
As for “QDRLDAPPPPAAPLPRWSGPIGVSWGLRAAAAGGAFPRGGRWRR (Propeptide PE)”, the “blocking of TREK-1 channel activity” value with TREK-1 channel was “able to block the activity of the TREK-1 channel”.
`CC(C)C[C@H](NC(=O)CNC(=O)[C@H](Cc1c[nH]c2ccccc12)NC(=O)[C@H](CO)NC(=O)[C@@H](NC(=O)[C@H](C)NC(=O)CCCC[C@@H]1SC[C@@H]2NC(=O)N[C@@H]21)C(C)C)C(=O)N[C@@H](CCCNC(=N)N)C(=O)O` [biotinylated G/A-PE(22-28)] (Biotin-AVSWGLR-OH; N-terminus and C-terminus assumed): the “escape latencies in the learned helplessness test” value in assay [3] is on record as “capable of reducing the escape latencies”. Moreover, the “neurogenesis (BrdU-positive cells of the hippocampus)” value in assay [4] is “increase neurogenesis more strongly than peptide PE(22-28); also recorded: capable of inducing an increase in neurogenesis”. In addition, the “PSD-95 synaptic protein expression (synaptogenesis)” value in the assay on PSD-95 protein is recorded as “increased PSD-95 synaptic protein expression”.

These data come from US11220527B2, “Peptides derived from the propeptide NTSR3 and their use in the treatment of depression” (CENTRE NATIONAL DE LA RECHERCHE SCIENTIFIQUE, priority 2016, dated 2022).
